Reference: publication PMC6201879, “N-substituted phenylbenzamides of the niclosamide chemotype attenuate obesity related changes in high fat diet fed mice” (PLoS ONE, 2018)
Read-outs that look alike come from different tables or passages of the source.

What was measured:
PH5CH8 liver cells = assay: High-throughput hepatic de novo lipogenesis (DNL) assay, high content imaging of steatotic phenotype; assay type: cell-based, human; conditions: for IC50: Homo sapiens
[1] = test system: HEK293 cells stably transduced with the human OCT3 transporter; assay: Cellular oxygen consumption rate (OCR), MitoXpress Xtra; assay type: cell-based; conditions: HEK293 cells expressing human OCT3; compared to DMSO control; 2 hours
Method in brief: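 HEK293 cells stably expressing human OCT3, treated with four compound concentrations; oxygen consumption followed by MitoXpress Xtra TR-F lifetime (340/650 nm) every 2 min for 2 h. Lifetime slope from the linear portion taken as OCR; FCCP (1 μM) as stimulated control, differences versus DMSO by t-test.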

[2] = Metabolic stability in human liver microsomes; assay type: in vitro ADME; conditions: for Remaining Percentage of 60 min (%), Human, Tested Sample: 0.5mg/ml microsomes and 1mM NADPH; for Remaining Percentage of 60 min (%), Human, Negative Control: 0.5mg/ml microsomes without NADPH; for Remaining Percentage of 60 min (%), Human, Heat-inactivated Control: heat inactivated microsomes without NADPH
Method: Three experiments were performed with 1) 0.5mg/ml microsomes and 1mM NADPH, 2) 0.5mg/ml microsomes without NADPH and 3) 0.5mg/ml heat inactivated microsomes without NADPH in 100mM phosphate buffer, containing 5mM magnesium chloride. […] At the indicated time points, 50μl samples were removed and stopped by addition of 4 volumes of cold acetonitrile with internal standards, 100nM alprazolam, 200nM labetalol and 2μM ketoprofen. The samples were centrifuged at 3,220 g for 40 minutes and aliquots of 100μl were subsequently diluted with 100μl of ultra-pure water and analyzed by LC/MS/MS using a (Shimadzu corporation) LC system coupled to a Shimadzu Triple Quad 5500 mass spectrometer with an ESI interface. The LC system used a Waters XSelect HSS T3 C18, 2.5μm, 2.1 x 50 mm column eluted with one of two methods using mobile phases A (water, 0.1% formic acid) and B (acetonitrile, 0.1% formic acid). […] The Shimadzu Triple Quad 5500 MS was operated with the following parameters: Ion source: Turbo spray; Ionization mode: ESI; Scan type: MRM; Collision gas: 10 L/min; Curtain gas: 30 L/min; Nebulize gas: 50 L/min; Auxiliary gas: 50 L/min; Temperature: 500°C; Ionspray voltage: +5500 V (positive MRM). All experiments were performed in duplicate. Data were analyzed using Microsoft excel, and peak areas were determined from extracted ion chromatograms.

[3] = Pharmacokinetic profile in Sprague Dawley rats (IV and PO); assay type: in vivo; conditions: Mean + SD (n = 3); for half-life / Cmax / bioavailability: Sprague Dawley; for half-life / Cmax / bioavailability / C0 / AUC(0-inf) / AUC(0-t) / clearance / MRT inf / Tmax: rat, plasma; for bioavailability: read-out: F (oral bioavailability); for clearance: read-out: Cl_obs
Method: To evaluate the pharmacokinetic profile by oral (PO) and intravenous (IV) administration routes we used 6 to 8-week old Sprague Dawley rats weighing approximately 200-330g (n = 3 per study group). Compounds were administered at 1mg/kg in 5% Cremophor EL and 20% PEG400 in water for IV and 5mg/kg in PBS for PO. All dose formulation was performed at room temperature. Animals were fasted overnight prior to dosing and were re-fed approximately 4 hours after dosing. For PO, 0.2ml of blood was collected pre- and 0.5, 1, 2, 4 8 12 and 24-hours after drug delivery and transferred to EDTA-K2 BD Vacutainer plastic blood collection tubes. IV samples were collected pre-injection and 0.08, 0.25, 0.5, 1, 2, 4, 8, 12, 24-hours post injection. Blood samples were centrifuged at 2,000 g for 5 minutes at 4°C to obtain plasma. Plasma samples were stored at -75±15°C prior to analysis and then thawed and analyzed by LC-MS/MS method and pharmacokinetic calculations were performed using WinNolin (Phoenix, version 6.4). For IV administration: T1/2, C0, AUClast, AUCinf, MRT, Cl, Vss, and number of points for regression were determined. For PO administration: T1/2, Cmax, Tmax, AUCinf, AUClast, F(0-∞) %, and number of points for regression were determined. Data are reported as mean and standard deviation.

[4] = test system: Salmonella typhimurium TA100; conditions: for Mean Revertant Colony Counts TA-100 SP9+: with S9; for Mean Revertant Colony Counts TA-100 S9-: without S9; for fold increase in the mean number of revertant colonies, TA100: any concentration tested, vs negative control
[5] = PH5CH8 liver cells, 10-point dose response between 1μM and 1.9nM, read-out: IC50 (uM), inhibition of steatotic phenotype in DNL assay
[6] = S1 Table, SAR for N-Substituted Phenylbenzamides, read-out: IC50
[7] = S1 Table, SAR for N-Substituted Phenylbenzamides
[8] = iv, 1 mg/kg, IV 1 mg/kg, read-out: T 1/2 (IV) (converted)
[9] = po, 5 mg/kg, PO 5 mg/kg vs IV 1 mg/kg
[10] = IV 1 mg/kg, read-out: AUC Inf (IV)
[11] = IV 1 mg/kg, read-out: AUC last (IV)
[12] = IV 1 mg/kg, read-out: MRT Inf_obs (IV)
[13] = PO 5 mg/kg in PBS, read-out: AUC Inf (PO)
[14] = PO 5 mg/kg in PBS, read-out: AUC last (PO)
[15] = PO 5 mg/kg in PBS, read-out: MRT Inf_obs (PO)

## CC(C)(C)c1ccc(O)c(C(=O)Nc2ccc(C(=O)O)cc2Cl)c1 [Compound 500200, 4-[(5-tert-butyl-2-hydroxybenzene)amido]-3-chlorobenzoic acid]
PH5CH8 liver cells; [5]
  IC50: 0.27 µM
PH5CH8 liver cells; [6]
  IC50: 0.034 µM
PH5CH8 liver cells; [7]
  Active/Inactive: Active
[1]
  change in respiration / oxygen consumption rate (OCR): no change in respiration
[2]
  Remaining Percentage of 60 min (%), Human, Tested Sample: 84.5%
  Remaining Percentage of 60 min (%), Human, Negative Control: 110.2%
  Remaining Percentage of 60 min (%), Human, Heat-inactivated Control: 96.6%
[3]; IV 1 mg/kg
  AUC _%Extrap_obs (IV): 0.13 +/- 0.016%
  AUCl ast/D (IV): 1940 ± 166 ng·kg·h/mL/mg
  V ss_obs: 0.13 ± 0.020 L/kg
  C0: 13800 ± 2610 ng/mL
  clearance: 8.63 ± 0.78 mL/min/kg
[3]; PO 5 mg/kg in PBS
  AUC _%Extrap_obs (PO): 1.94 +/- 1.27%
  AUC last / D (PO): 43.3 ± 25.3 ng·kg·h/mL/mg
  Tmax: 3.33 ± 1.15 h
[3]; [8]
  half-life: 99.6 ± 28.8 min
[3]; po, 5 mg/kg, PO 5 mg/kg in PBS
  Cmax: 50.8 ± 35.7 ng/mL
[3]; po, 5 mg/kg, PO 5 mg/kg in PBS, read-out: T 1/2 (PO) (converted)
  half-life: 90.6 ± 24 min
[3]; [9]
  bioavailability: 2.26 ± 1.29%
[3]; [10]
  AUC(0-inf): 1940 ± 166 ng·h/mL
[3]; [11]
  AUC(0-t): 1940 ± 166 ng·h/mL
[3]; [12]
  MRT inf: 0.26 ± 0.048 h
[3]; [13]
  AUC(0-inf): 220 ± 1250 ng·h/mL
[3]; [14]
  AUC(0-t): 216 ± 127 ng·h/mL
[3]; [15]
  MRT inf: 4.04 ± 0.68 h
[4]; 1.5 ug/Well
  Mean Revertant Colony Counts TA-100 SP9+: 18.7
  Mean Revertant Colony Counts TA-100 S9-: 32.3
[4]; 4 ug/Well
  Mean Revertant Colony Counts TA-100 SP9+: 19.7
  Mean Revertant Colony Counts TA-100 S9-: 25.7
[4]; 10 ug/Well
  Mean Revertant Colony Counts TA-100 SP9+: 22.0
  Mean Revertant Colony Counts TA-100 S9-: 26.7
[4]; 25 ug/Well
  Mean Revertant Colony Counts TA-100 SP9+: 22.0
  Mean Revertant Colony Counts TA-100 S9-: 28.0
[4]; 64 ug/Well
  Mean Revertant Colony Counts TA-100 SP9+: 20.3
  Mean Revertant Colony Counts TA-100 S9-: 26.3
[4]; 160 ug/Well
  Mean Revertant Colony Counts TA-100 SP9+: 27.7
  Mean Revertant Colony Counts TA-100 S9-: 24.0
[4]; 400 ug/Well
  Mean Revertant Colony Counts TA-100 SP9+: 18.3
  Mean Revertant Colony Counts TA-100 S9-: 29.7
[4]; 1000 ug/Well
  Mean Revertant Colony Counts TA-100 SP9+: 8.0
  Mean Revertant Colony Counts TA-100 S9-: 16.3
[4]
  fold increase in the mean number of revertant colonies, TA100: < 2 fold

## CC(C)(C)c1ccc(O)c(C(=O)Nc2ccc(C(=O)O)cc2C(F)(F)F)c1 [Compound 500873, 4-[(5-tert-butyl-2-hydroxy)amido]-3-(trifluoromethyl)benzoic acid]
PH5CH8 liver cells; [5]
  IC50: 0.005 µM
PH5CH8 liver cells; [6]
  IC50: 0.0046 µM
PH5CH8 liver cells; [7]
  Active/Inactive: Active
[1]
  change in respiration / oxygen consumption rate (OCR): no change in respiration
[2]
  Remaining Percentage of 60 min (%), Human, Tested Sample: 64.2%
  Remaining Percentage of 60 min (%), Human, Negative Control: 97.7%
  Remaining Percentage of 60 min (%), Human, Heat-inactivated Control: 91.1%
[3]; IV 1 mg/kg
  AUC _%Extrap_obs (IV): 0.249 +/- 0.151%
  AUCl ast/D (IV): 13000 ± 3070 ng·kg·h/mL/mg
  V ss_obs: 0.11 ± 0.004 L/kg
  C0: 24100 ± 4000 ng/mL
  clearance: 1.33 ± 0.31 mL/min/kg
[3]; PO 5 mg/kg in PBS
  AUC _%Extrap_obs (PO): 11.14 +/- 11.6%
  AUC last / D (PO): 1290 ± 817 ng·kg·h/mL/mg
  Tmax: 3.33 ± 1.15 h
[3]; PO 5 mg/kg in PBS, 5 mg/kg
  C max: 912.33 ± 856 ng/mL
[3]; PO 5 mg/kg vs IV 1 mg/kg
  F (oral bioavailability): 10.20 +/-6.3%
[3]; [8]
  half-life: 172 ± 51.6 min
[3]; po, 5 mg/kg, PO 5 mg/kg in PBS
  Cmax: 912 ng/mL
[3]; [9]
  bioavailability: 10%
[3]; [10]
  AUC(0-inf): 13000 ± 3070 ng·h/mL
[3]; [11]
  AUC(0-t): 13000 ± 3070 ng·h/mL
[3]; [12]
  MRT inf: 1.42 ± 0.29 h
[3]; [13]
  AUC(0-inf): 6950 ± 3680 ng·h/mL
[3]; [14]
  AUC(0-t): 6430 ± 4080 ng·h/mL
[3]; [15]
  MRT inf: 10 ± 5.6 h
[4]; 1.5 ug/Well
  Mean Revertant Colony Counts TA-100 SP9+: 22.3
  Mean Revertant Colony Counts TA-100 S9-: 33.0
[4]; 4 ug/Well
  Mean Revertant Colony Counts TA-100 SP9+: 18.3
  Mean Revertant Colony Counts TA-100 S9-: 31.7
[4]; 10 ug/Well
  Mean Revertant Colony Counts TA-100 SP9+: 20.7
  Mean Revertant Colony Counts TA-100 S9-: 28.3
[4]; 25 ug/Well
  Mean Revertant Colony Counts TA-100 SP9+: 16.7
  Mean Revertant Colony Counts TA-100 S9-: 25.0
[4]; 64 ug/Well
  Mean Revertant Colony Counts TA-100 SP9+: 18.3
  Mean Revertant Colony Counts TA-100 S9-: 28.7
[4]; 160 ug/Well
  Mean Revertant Colony Counts TA-100 SP9+: 22.7
  Mean Revertant Colony Counts TA-100 S9-: 25.0
[4]; 400 ug/Well
  Mean Revertant Colony Counts TA-100 SP9+: 17.7
  Mean Revertant Colony Counts TA-100 S9-: 21.0
[4]
  fold increase in the mean number of revertant colonies, TA100: < 2 fold
